Results published in patent US11702404B2, “GLP-1R modulating compounds” (priority 2019, dated 2023).
Read-outs that look alike come from different tables or passages of the source.

Legend:
GLP-1R = GLP-1R (Homo sapiens, UniProt P43220); assay: GLP-1R activation: cAMP increase in CHO cells stably expressing GLP-1R; format: cell-based
[1] = Microsomal stability, human liver microsomes (predicted hepatic clearance); conditions: predicted from in vitro microsomal stability data
[2] = cAMP increase, CHO cells stably expressing GLP-1R, 10 point dose response, 30 minutes incubation, read-out: EC50

Chain of GLP-1R (P43220 24-463): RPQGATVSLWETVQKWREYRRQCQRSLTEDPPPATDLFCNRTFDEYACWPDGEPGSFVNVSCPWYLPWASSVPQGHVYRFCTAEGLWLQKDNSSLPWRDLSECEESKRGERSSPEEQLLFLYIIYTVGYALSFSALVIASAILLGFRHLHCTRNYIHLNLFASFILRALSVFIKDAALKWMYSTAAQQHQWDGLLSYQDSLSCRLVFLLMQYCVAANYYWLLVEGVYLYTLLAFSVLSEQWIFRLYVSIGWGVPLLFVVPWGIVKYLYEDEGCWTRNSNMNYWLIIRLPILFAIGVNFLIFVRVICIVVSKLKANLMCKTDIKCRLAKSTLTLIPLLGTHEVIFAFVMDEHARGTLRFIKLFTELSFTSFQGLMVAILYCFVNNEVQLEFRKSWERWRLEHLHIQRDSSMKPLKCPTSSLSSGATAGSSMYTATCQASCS

With `COCCn1c(Cc2ccc(-c3cc(C)cc(OCc4ccc(C#N)cc4F)n3)cc2F)nc2ccc(C(=O)O)cc21` [Example 31, 2-(4-(6-((4-cyano-2-fluorobenzyl)oxy)-4-methylpyridin-2-yl)-2-fluorobenzyl)-1-(2-methoxyethyl)-1H-benzo[d]imidazole-6-carboxylic acid] the EC50 (GLP-1R; [2]) was 32 nM and the “Predicted Hepatic Clearance (Pred. Cl.)” value [1] was 4.67 mL/min/kg.
With `O=C(O)c1ccc2nc(Cc3cc(F)c(-c4cccc(OCc5ccc(Cl)cc5)n4)cc3F)n(C[C@@H]3CCO3)c2c1` [Example 808] the EC50 (GLP-1R; [2]) was 0.05 nM and the “Predicted Hepatic Clearance (Pred. Cl.)” value [1] was 3.5 mL/min/kg.
For `COCCn1c(Cc2cc(F)c(-c3cccc(OCc4ccc(C#N)nc4)n3)cc2F)nc2ccc(C(=O)O)cc21` [Example 820], the EC50 (GLP-1R; EC50 (nM)) was 11.5 nM and the “Predicted Hepatic Clearance (Pred. Cl.)” value [1] was 2.67 mL/min/kg.
With `O=C(O)c1ccc2nc(Cc3cc(F)c(-c4ccnc(OCc5ccc(C(F)(F)F)cc5F)n4)cc3F)n(C[C@@H]3CCO3)c2c1` [Example 785] the EC50 (GLP-1R; [2]) was 0.05 nM and the “Predicted Hepatic Clearance (Pred. Cl.)” value [1] was 1.83 mL/min/kg.
In the case of `COCCn1c(Cc2ccc(-c3cccc(OCc4ccc(C#N)cc4F)n3)cc2C#CC2CCOCC2)nc2ccc(C(=O)O)cc21` [Example 438, 2-(4-(6-((4-cyano-2-fluorobenzyl)oxy)pyridin-2-yl)-2-((tetrahydro-2H-pyran-4-yl)ethynyl)benzyl)-1-(2-methoxyethyl)-1H-benzo[d]imidazole-6-carboxylic], the EC50 (GLP-1R; [2]) is reported as 64.7 nM and the “Predicted Hepatic Clearance (Pred. Cl.)” value [1] is reported as 18.7 mL/min/kg.
In the case of `COCCn1c(Cn2c(C)cc(-c3cccc(OCc4ccc(C#N)cc4F)n3)cc2=O)nc2ccc(C(=O)O)cc21` [Example 437, 2-((6-((4-cyano-2-fluorobenzyl)oxy)-6′-methyl-2′-oxo-[2,4′-bipyridin]-1′(2′H)-yl)methyl)-1-(2-methoxyethyl)-1H-benzo[d]imidazole-6-carboxylic acid], the EC50 (GLP-1R; [2]) is reported as 69.8 nM and the “Predicted Hepatic Clearance (Pred. Cl.)” value [1] is reported as 2.67 mL/min/kg.
With `COCCn1c(Cc2ccc(-c3cccc(OCc4ccc(C#N)cc4F)n3)c(Br)c2)nc2ccc(C(=O)O)cc21` [Example 261, 2-(3-bromo-4-(6-((4-cyano-2-fluorobenzyl)oxy)pyridin-2-yl)benzyl)-1-(2-methoxyethyl)-1H-benzo[d]imidazole-6-carboxylic acid] the EC50 (GLP-1R; [2]) was 184 nM and the “Predicted Hepatic Clearance (Pred. Cl.)” value [1] was 8 mL/min/kg.
With `COCCn1c(Cc2cc(F)c(-c3cccc(OCc4ccc(C#N)cc4F)n3)cc2CO)nc2ccc(C(=O)O)cc21` [Example 753] the EC50 (GLP-1R; [2]) was 0.74 nM and the “Predicted Hepatic Clearance (Pred. Cl.)” value [1] was 10.3 mL/min/kg.
For `N#Cc1ccc(COc2cccc(-c3cc(F)c(Cc4nc5ccc(C(=O)O)cc5n4CC4CCOCC4)cc3F)n2)c(F)c1` [Example 546, 2-(4-(6-((4-cyano-2-fluorobenzyl)oxy)pyridin-2-yl)-2,5-difluorobenzyl)-1-((tetrahydro-2H-pyran-4-yl)methyl)-1H-benzo[d]imidazole-carboxylic acid], the EC50 (GLP-1R; [2]) was 0.33 nM and the “Predicted Hepatic Clearance (Pred. Cl.)” value [1] was 8.83 mL/min/kg.
In the case of `COCCn1c(Cc2cc(F)c(-c3cccc(OCc4ccc(F)nc4)n3)cc2F)nc2ccc(C(=O)O)cc21` [Example 812], the EC50 (GLP-1R; [2]) is reported as 24.9 nM and the “Predicted Hepatic Clearance (Pred. Cl.)” value [1] is reported as 1.83 mL/min/kg.
With `N#CCC1(Cn2c(Cc3ccc(-c4cccc(OCc5ccc(C#N)cc5F)n4)c(F)c3)nc3ccc(C(=O)O)cc32)CC1` [Example 530, 2-(4-(6-((4-cyano-2-fluorobenzyl)oxy)pyridin-2-yl)-3-fluorobenzyl)-1-((1-(cyanomethyl)cyclopropyl)methyl)-1H-benzo[d]imidazole-6-carboxylic acid] the EC50 (GLP-1R; [2]) was 0.43 nM and the “Predicted Hepatic Clearance (Pred. Cl.)” value [1] was 10.5 mL/min/kg.
With `COCCn1c(Cc2cc(Cl)c(-c3cccc(OCc4ccc(C#N)cc4F)n3)cc2F)nc2ccc(C(=O)O)cc21` [Example 314, 2-(5-chloro-4-(6-((4-cyano-2-fluorobenzyl)oxy)pyridin-2-yl)-2-fluorobenzyl)-1-(2-methoxyethyl)-1H-benzo[d]imidazole-6-carboxylic acid] the EC50 (GLP-1R; [2]) was 12.5 nM and the “Predicted Hepatic Clearance (Pred. Cl.)” value [1] was 5 mL/min/kg.
In the case of `COCCn1c(Cc2ccc(-c3cccc(OCc4ccc(C#N)cc4F)n3)cc2Cl)nc2ccc(C(=O)O)cc21` [Example 38, 2-(2-chloro-4-(6-((4-cyano-2-fluorobenzyl)oxy)pyridin-2-yl)benzyl)-1-(2-methoxyethyl)-1H-benzo[d]imidazole-carboxylic acid], the EC50 (GLP-1R; [2]) is reported as 6.18 nM and the “Predicted Hepatic Clearance (Pred. Cl.)” value [1] is reported as 5.33 mL/min/kg.
For `O=C(O)c1cc(F)c2nc(Cc3ccc(-c4cccc(OCc5ccc(C(F)F)cc5F)n4)cc3F)n(CC34CC(CO3)C4)c2c1` [Example 646], the EC50 (GLP-1R; [2]) was 1.78 nM and the “Predicted Hepatic Clearance (Pred. Cl.)” value [1] was 5.83 mL/min/kg.
With `O=C(O)c1ccc2nc(Cc3cc(F)c(-c4cccc(OCc5ccc(C(F)F)cc5F)n4)cc3F)n(C[C@@H]3CCO3)c2c1` [Example 800] the EC50 (GLP-1R; [2]) was 0.1 nM and the “Predicted Hepatic Clearance (Pred. Cl.)” value [1] was 1.83 mL/min/kg.
For `COCCn1c(Cc2ccc(-c3cc(F)cc(OCc4ccc(C#N)cc4OC)n3)cc2F)nc2ccc(C(=O)O)cc21` [Example 77, 2-(4-(6-((4-cyano-2-methoxybenzyl)oxy)-4-fluoropyridin-2-yl)-2-fluorobenzyl)-1-(2-methoxyethyl)-1H-benzo[d]imidazole-6-carboxylic], the EC50 (GLP-1R; [2]) was 0.19 nM and the “Predicted Hepatic Clearance (Pred. Cl.)” value [1] was 9.17 mL/min/kg.
For `COCCn1c(Cc2cc(F)c(-c3cccc(OCc4ccc(C#N)cc4F)n3)c(F)c2)nc2ccc(C(=O)O)cc21` [Example 110, 2-(4-(6-((4-cyano-2-fluorobenzyl)oxy)pyridin-2-yl)-3,5-difluorobenzyl)-1-(2-methoxyethyl)-1H-benzo[d]imidazole-6-carboxylic acid], the EC50 (GLP-1R; EC50 (nM)) was 21.8 nM and the “Predicted Hepatic Clearance (Pred. Cl.)” value [1] was 7 mL/min/kg.
With `N#CCC1(Cn2c(Cc3ccc(-c4ncc(F)c(OCc5ccc(C#N)cc5F)n4)c(F)c3)nc3ccc(C(=O)O)cc32)CC1` [Example 127, 2-(4-(4-((4-cyano-2-fluorobenzyl)oxy)-5-fluoropyrimidin-2-yl)-3-fluorobenzyl)-1-((1-(cyanomethyl)cyclopropyl)methyl)-1H-benzo[d]imidazole-6-carboxylic acid] the EC50 (GLP-1R; [2]) was 0.34 nM and the “Predicted Hepatic Clearance (Pred. Cl.)” value [1] was 6.7 mL/min/kg.
For `COCCn1c(Cc2cc(F)c(-c3cccc(OCc4cccc(-c5ccccn5)c4)n3)cc2F)nc2ccc(C(=O)O)cc21` [Example 908], the EC50 (GLP-1R; [2]) was 6.68 nM and the “Predicted Hepatic Clearance (Pred. Cl.)” value [1] was 5.17 mL/min/kg.
For `COCCn1c(Cc2ccc(-c3cccc(OCC(=O)c4ccc(Cl)cc4)n3)cc2F)nc2ccc(C(=O)O)cc21` [Example 212, 2-(4-(6-(2-(4-Chlorophenyl)-2-oxoethoxy)pyridin-2-yl)-2-fluorobenzyl)-1-(2-methoxyethyl)-1H-benzo[d]imidazole-6-carboxylic acid], the EC50 (GLP-1R; [2]) was 80.1 nM and the “Predicted Hepatic Clearance (Pred. Cl.)” value [1] was under 1.83 mL/min/kg.
In the case of `N#Cc1ccc(COc2cccc(-c3cc(F)c(Cc4nc5cc(F)c(C(=O)O)cc5n4CC4(CF)CC4)cc3F)n2)c(F)c1` [Example 205, 2-(4-(6-((4-cyano-2-fluorobenzyl)oxy)pyridin-2-yl)-2,5-difluorobenzyl)-5-fluoro-1-((1-(fluoromethyl)cyclopropyl)methyl)-1H-benzo[d]imidazole-6-carboxylic acid], the EC50 (GLP-1R; [2]) is reported as 3.23 nM and the “Predicted Hepatic Clearance (Pred. Cl.)” value [1] is reported as 5 mL/min/kg.
With `C[C@H](C1CC1)n1c(Cc2ccc(-c3cccc(OCc4ccc(C#N)cc4F)n3)cc2F)nc2ccc(C(=O)O)cc21` [Example 222, (R)-2-(4-(6-((4-cyano-2-fluorobenzyl)oxy)pyridin-2-yl)-2-fluorobenzyl)-1-(1-cyclopropylethyl)-1H-benzo[d]imidazole-6-carboxylic acid] the EC50 (GLP-1R; [2]) was 6.79 nM and the “Predicted Hepatic Clearance (Pred. Cl.)” value [1] was 5 mL/min/kg.
